Results on two compounds are retold here after patent publication US20250340743A1, “Polyetheramine-Based Multifunctional Booster” (Troy Technology II, Inc., priority 2022, published 2025).

This assay concerns Pseudomonas aeruginosa (ATCC #10145). The assay can be described thus: MIC via microbroth dilution. It is filed as cell-based. How it is done: To examine the preservative boosting potential of these dispersions, minimum inhibitory concentration (MIC) testing was performed. MICs were determined via microbroth dilution using the following specific test parameters:
Necessary organism dilutions via OD600 were calculated based on OD600 of 1.0 being equivalent to 8×10^8 CFU/mL. Biocide dilutions were performed in 2-fold increments for each assay.
(Dilution methods test growth across graded concentrations, often in twofold steps.)

SMILES strings stand for the structures. Read-outs that look alike come from different tables or passages of the source.

In the case of `O=c1[nH]sc2ccccc12` [BIT, 1,2-benzisothiazolin-3-one], the “Fold Reduction of MIC over control without booster” value turned out to be 2 fold (Table 7, with 0.075% “1737-72”:AMP95 (1:1)) and 2 fold (Table 7, with 0.15% “1737-72”:AMP95 (1:1)). Also, for the setting “biocide in combination with magnesium oxide version “1737-34””, the “fold lower MIC values” is recorded as 2 fold.

With `[Na+].[O-][n+]1ccccc1[S-]` [sodium pyrithione], the “Fold Reduction of MIC over control without booster” value worked out at 64 fold and the “fold lower MIC values” is given as “clearly antagonistic”.
